Several values for one entry are separate records, joined by “and”; a condition that tells them apart may be missing. Equal values may be shown once.
Assays:
[1] = tested on: mice; conditions: mouse, in vivo; cited from earlier work
[2] = tested on: ISRE; assay: ISRE-Luc reporter gene in FRTL-5 thyrocytes; assay type: cell-based, rat
Experimental: Cells were co-transfected with ISRE-Luc and pRLTk-Int and then treated without (none) or with Poly I:C (100 μg/ml), LPS (100 ng/ml), IL-1β (10 ng/ml) TNF-α (25 ng/ml), IFN-β (100 U/ml) or IFN-γ (1000 U/ml) in the presence of DMSO (−) or C10 for 6 hours. Data were obtained using the Dual Luciferase Assay system. The effect on the ISRE element is not duplicated by an NF-κB reporter plasmid despite the similarity of the two elements: ([…])5 (SEQ ID NO:3) vs. ([…])5 (SEQ ID NO:4), respectively. Data are representative of multiple experiments.
Plasmids for Reporter Gene Assays. Human IRF-3 was amplified from human cDNA and cloned into pCR 2.1 by the TOPO/TA (Invitrogen, Carlsbad, Calif.) cloning method, and then sequenced. IRF-3 was then excised by EcoRI digestion and subcloned into pCMV-BD (Stratagene, La Jolla, Calif.) for use in transactivation assays. To construct IFN-β-luc the human IFN-β promoter sequence was amplified from human genomic DNA (Clontech, Palo Alto, Calif.)) using Ex Taq™ Polymerase (Takara, Madison, Wis.). The PCR fragment contained human IFN-β promoter sequence from −125 to +34 relative to the transcription start site (+1) and incorporated KpnI and XhoI restriction sites at the 5′ and 3′ ends, respectively. The primers were as follows: hIFN-β (−125) KpnI (5′-[…]-3′) (SEQ ID NO:9) and hIFN-β (+34) XhoI (5′-[…]-3′). […]

[3] = tested on: RAW 264.7 cells; assay: LPS-induced cytokine mRNA in RAW 264.7 macrophages (real-time PCR, Northern); conditions: RAW 264.7, LPS 1 μg/mL
[4] = tested on: TLR3; assay: TLR3 mRNA in NPA human thyrocytes (Northern); assay type: cell-based; conditions: 0.5 mM C10
Experimental: In order to confirm the presence and functionality of TLR3 in human thyrocytes, we evaluated TLR3 expression in cultured NPA human thyrocytes. NPA thyrocytes are from a papillary carcinoma but are known to retain functional properties of normal thyrocytes. Transfection with dsRNA [Poly (I:C)], but not transfection by dsDNA or incubation with Poly (I:C), was able to increase TLR3 mRNA levels in Northern blots. The dsRNA, but not the dsDNA transfection, could also increase IFN-β mRNA levels, measured as before with PCR. Additionally, as was the case for FRTL-5 cells and dsRNA transfection, IFN-β increased PKR mRNA levels as well as TLR3 RNA levels.
NPA-87 cells are a continuous line of human thyrocytes derived from papillary carcinoma cells. They retain several functional responses including TSH-increased cAMP signaling (J. Xu, et al., J Clin Endocrinol Metab, 88:4990-6 (2003)). They were kindly provided by Dr. Guy Julliard (University of California, Los Angeles, Calif.) and grown in RPMI 1640 medium supplemented with 2 g/liter sodium bicarbonate, 0.14 mM nonessential amino acids, 1.4 mM sodium pyruvate, and 10% fetal bovine serum, pH 7.2.
RNA Isolation and Northern Analysis.

[5] = tested on: mice; assay: Colitis model in mice (DSS); assay type: in vivo, mouse; conditions: 10 animals, 0.1 mg/kg, 14 days
[6] = 1 hour, real-time PCR vs DMSO control
[7] = 3 hours, real-time PCR vs DMSO control

## Cn1c(-c2ccccc2)cnc1S [Compound C10, 5-Phenylmethimazole]
[1]
  inflammatory response and survival in DSS induced colitis: suppress the inflammatory response and improve survival
[2]; FRTL-5, 6 hours
  ISRE activation by poly (I:C), LPS, IL-1β, TNF-α, IFN-β and IFN-γ (ISRE-Luc): effective inhibitor
[2]; FRTL-5, Ligand None, 6 hours
  ISRE-Luc Relative Luciferase Activity % of Control (±15%), +C10: 100 % of Control
[3]; 1 or 6 hours, real-time PCR
  reduction in LPS-increased TNF-α: no reduction
[3]; [6]
  decrease in LPS-increased IFN-β gene expression: 8 fold
  decrease in LPS-induced IL-1β: 11 fold
[3]; [7]
  decrease in LPS-increased IL-6: 16 fold and > 16 fold
  reduction in LPS-increased TNF-α: 4 fold
[3]; 6 hours, real-time PCR vs DMSO control
  reduction in LPS-induced IL-12 p40: 16 fold
[4]
  dsRNA transfection- or IFN-β-increased TLR3 mRNA levels: decreased
[5]; Ip freshly diluted in DMSO
  Survival % of Control: 100%
[5]; Oral stored in excipient 1 week
  Survival % of Control: 100%
